Data from ChEMBL document CHEMBL1201862, “PubChem BioAssay data set” (2004).
The source made the active and inactive calls.

Columns and labels:
[1] = target: T1, Tyrosine-protein phosphatase non-receptor type 11 (Homo sapiens, UniProt Q06124); assay: PTPN11 enzyme inhibitors – biochemical, selectivity assay for STEP inhibitor project, dose response (AID 602367); type: functional; conditions: read-out: IC50_Mean
T1 sequence (Q06124 whole entry): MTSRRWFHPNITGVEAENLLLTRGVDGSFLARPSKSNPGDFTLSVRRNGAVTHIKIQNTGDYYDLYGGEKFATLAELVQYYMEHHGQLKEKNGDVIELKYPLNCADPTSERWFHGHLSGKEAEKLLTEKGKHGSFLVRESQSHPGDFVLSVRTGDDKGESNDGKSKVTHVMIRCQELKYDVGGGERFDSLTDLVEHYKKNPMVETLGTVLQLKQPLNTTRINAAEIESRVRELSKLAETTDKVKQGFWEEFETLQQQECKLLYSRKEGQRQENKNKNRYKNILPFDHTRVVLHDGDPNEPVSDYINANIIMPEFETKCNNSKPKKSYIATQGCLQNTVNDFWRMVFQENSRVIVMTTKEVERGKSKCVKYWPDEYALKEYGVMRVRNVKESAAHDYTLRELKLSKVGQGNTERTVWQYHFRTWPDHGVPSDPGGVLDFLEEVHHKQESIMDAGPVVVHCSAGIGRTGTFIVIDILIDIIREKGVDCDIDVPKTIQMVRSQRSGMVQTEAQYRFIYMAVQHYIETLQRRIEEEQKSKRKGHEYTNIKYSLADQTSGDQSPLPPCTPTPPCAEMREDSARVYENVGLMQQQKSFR

[2] = target: Dual specificity protein phosphatase 3 (Homo sapiens, UniProt P51452); assay: VHR phosphatase inhibition, dose response, selectivity assay for STEP inhibitor project, biochemical (AID 602374); type: functional; conditions: read-out: IC50_Mean
Chain of Dual specificity protein phosphatase 3 (P51452 whole entry): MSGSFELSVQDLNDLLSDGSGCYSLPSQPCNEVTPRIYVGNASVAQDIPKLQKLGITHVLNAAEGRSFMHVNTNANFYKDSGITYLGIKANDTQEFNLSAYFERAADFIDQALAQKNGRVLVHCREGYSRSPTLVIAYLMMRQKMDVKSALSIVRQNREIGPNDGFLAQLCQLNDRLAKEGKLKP

[3] = target: T2, Tyrosine-protein phosphatase non-receptor type 5 (Homo sapiens, UniProt P54829); assay: PTPN5 enzyme inhibition – biochemical, fluorescence intensity, uHTS hits, confirmation (AID 602372); type: functional; conditions: read-out: IC50_Mean
T2 sequence (P54829 whole entry): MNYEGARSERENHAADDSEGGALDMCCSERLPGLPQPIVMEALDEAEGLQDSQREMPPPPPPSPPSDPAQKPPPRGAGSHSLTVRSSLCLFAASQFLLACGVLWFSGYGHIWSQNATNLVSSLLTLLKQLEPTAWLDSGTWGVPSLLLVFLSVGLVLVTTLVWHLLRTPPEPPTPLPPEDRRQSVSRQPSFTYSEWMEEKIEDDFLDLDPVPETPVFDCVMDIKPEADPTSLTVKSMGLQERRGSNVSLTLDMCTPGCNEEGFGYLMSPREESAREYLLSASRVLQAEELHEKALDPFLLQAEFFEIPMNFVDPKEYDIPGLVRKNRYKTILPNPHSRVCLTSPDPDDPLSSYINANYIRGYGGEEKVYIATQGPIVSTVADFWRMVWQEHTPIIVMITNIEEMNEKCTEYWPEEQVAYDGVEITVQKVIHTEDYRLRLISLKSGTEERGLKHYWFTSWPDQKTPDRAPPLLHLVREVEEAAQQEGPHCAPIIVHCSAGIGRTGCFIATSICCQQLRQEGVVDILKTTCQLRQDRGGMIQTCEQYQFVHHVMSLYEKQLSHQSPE

[4] = target: T3, Carboxy-terminal domain RNA polymerase II polypeptide A small phosphatase 1 (Homo sapiens, UniProt Q9GZU7); assay: CTDSP1 inhibitors, concentration-response, biochemical, absorbance readout, ultra-high-throughput screen actives (AID 540297); type: functional
T3 sequence (Q9GZU7 whole entry): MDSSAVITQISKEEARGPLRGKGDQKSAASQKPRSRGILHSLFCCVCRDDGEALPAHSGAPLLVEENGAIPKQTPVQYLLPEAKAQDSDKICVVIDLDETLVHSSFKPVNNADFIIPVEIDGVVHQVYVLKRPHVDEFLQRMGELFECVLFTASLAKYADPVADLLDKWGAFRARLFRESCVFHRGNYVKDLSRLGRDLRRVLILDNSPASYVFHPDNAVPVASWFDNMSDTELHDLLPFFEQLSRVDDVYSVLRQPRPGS

Kallikrein-7 = Kallikrein-7 (Homo sapiens, UniProt P49862); assay: Fluorescence Intensity-based biochemical primary high throughput dose response assay to identify activators of kallikrein-7 (K7) zymogen.
Chain of Kallikrein-7 (P49862 whole entry): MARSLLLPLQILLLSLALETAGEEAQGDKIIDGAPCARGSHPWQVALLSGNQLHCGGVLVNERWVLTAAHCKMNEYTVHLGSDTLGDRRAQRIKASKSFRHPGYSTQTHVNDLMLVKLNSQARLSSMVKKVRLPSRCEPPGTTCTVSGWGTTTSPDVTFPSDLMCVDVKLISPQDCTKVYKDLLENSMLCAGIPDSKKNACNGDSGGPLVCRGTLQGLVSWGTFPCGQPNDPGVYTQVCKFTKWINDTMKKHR

[5] = target: T4, Trace amine-associated receptor 1 (Homo sapiens, UniProt Q96RJ0); assay: Counterscreen for agonists of the human trace amine associated receptor 1 (hTAAR1): Fluorescence-based cell-based high throughput dose response assay to identify hTAAR1 agonist that also desensitize TAAR1 receptor response.; type: functional
T4 sequence (Q96RJ0 whole entry): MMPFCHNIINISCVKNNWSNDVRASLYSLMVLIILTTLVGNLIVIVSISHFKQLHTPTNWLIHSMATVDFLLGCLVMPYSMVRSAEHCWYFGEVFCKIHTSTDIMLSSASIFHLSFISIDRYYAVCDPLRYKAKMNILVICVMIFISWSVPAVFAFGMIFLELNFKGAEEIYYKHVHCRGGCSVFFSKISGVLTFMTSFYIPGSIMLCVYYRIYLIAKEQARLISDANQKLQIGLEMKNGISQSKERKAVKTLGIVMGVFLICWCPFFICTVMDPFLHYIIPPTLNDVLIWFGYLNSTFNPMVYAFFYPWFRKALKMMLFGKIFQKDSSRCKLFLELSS

[6] = viability loss of HPDE-C7K cells – cell-based, fluorescence, HTS, primary screen (AID 431); type: functional; conditions: Homo sapiens
[7] = HPDE-C7 pancreatic duct cell viability loss – fluorescence, HTS (AID 430); type: functional, cell-based; conditions: Homo sapiens
[8] = target: T4, Trace amine-associated receptor 1; assay: Fluorescence-based cell-based high throughput dose response assay to identify agonists of the human trace amine associated receptor 1 (TAAR1).; type: functional
cells [9] = type: functional, cell-based
cells [10] = type: functional, cell-based; remark: listed apart in the source
[11] = blockers of HIV-1 ZM109 envelope-driven cell-cell fusion – HeLa effector, CEM target cells, luciferase, cherry-pick, dose response (AID 652058); type: functional, cell-based;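 also: luciferase signal from HIV-1 Env mediated cell-cell fusion of effector and target cells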
[12] = HIV-1 AD8 envelope cell-cell fusion blockers – cherry-pick, dose response (AID 652062); type: functional, cell-based;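 also: luciferase signal from cell-cell fusion driven by HIV-1 clade B AD8 Env; potency is for inhibitors of fusion seen as a drop in luminescence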
[13] = off-target signal loss in HeLa-CEM21 co-culture – HeLa F-luc CTL cells, cherry-picked, counter-screen for HIV-1 Env fusion inhibitor project, dose response (AID 652040); type: functional, cell-based;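 also: potency for signal decrease marking cytotoxic or nonspecific inhibition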
[14] = blockers of HIV-1 envelope-mediated cell-cell fusion – cherry-pick, dose response (AID 652057); type: functional, cell-based

In the case of CC(C)(C)C(=O)Nc1ccc(C(=O)Nc2cccc(Oc3ccc(C(=O)O)c(C(=O)O)c3)c2)cc1, the IC50 [1] is reported as 16.5 µM (active), the IC50 [2] is reported as 38.4 µM (inactive) and the IC50 [3] is reported as 13.6 µM (active).

In the case of O=C(COc1ccc([N+](=O)[O-])cc1)Nc1nnc(-c2cccnc2)s1, the IC50 [1] is reported as 2.44 µM (active), the IC50 [2] is reported as 4.25 µM (active) and the IC50 [3] is reported as 59.9 µM (inactive). For the same compound, the IC50 [4] was 5.51 µM (active).

In the case of CCN(CC)S(=O)(=O)c1cccc(-c2cn3cccnc3n2)c1, the EC50 (Kallikrein-7) is reported as > 69.5 µM (inactive).

With O=C(CCN1CCc2ccccc2CC1)c1ccc2c(c1)OCCO2 the IC50 [5] was 0.828 µM (active), the EC50 [6] was 11.3 µM (active) and the EC50 [7] was 13.1 µM (active). For the same compound, the EC50 [8] was 254 nM (active), the IC50 (cells [9]) was > 29.9 µM (inactive) and the EC50 (cells [10]) was > 29.9 µM (inactive).

For N=c1c(C(=O)NC2CCCC2)cc2c(=O)n3ccccc3nc2n1CC1CCCO1 (configuration not stated), the EC50 (Kallikrein-7) was 26.8 µM (inactive).

In the case of c1ccc2c(c1)CCN(c1nc3cc4c(cc3s1)OCO4)C2, the IC50 [5] is reported as 2.96 µM (active), the EC50 [8] is reported as 751 nM (active) and the IC50 (cells [9]) is reported as > 29.9 µM (inactive). For the same compound, the EC50 (cells [10]) was > 29.9 µM (inactive).

In the case of CCOc1ccc(C(C)=O)cc1COC(=O)c1ccccc1C(=O)N(C)Cc1ccccc1, the AC50 [11] is reported as 4.87 µM (active), the AC50 [12] is reported as 6.39 µM (active) and the AC50 [13] is reported as 5.14 µM (active). For the same compound, the AC50 [14] was 3.55 µM (active).

In the case of COc1cc(C(C)=O)ccc1OCC(O)CNCC(O)c1ccccc1 (configuration not stated), the IC50 [5] is reported as 12.3 µM (inactive), the EC50 [8] is reported as 2130 nM (active) and the IC50 (cells [9]) is reported as > 29.9 µM (inactive). The EC50 (cells [10]) was > 29.9 µM (inactive).
